Measurements from patent US8519183B2, “Uses for amino acid anticonvulsants” (Research Corporation Technologies, Inc., priority 2000, dated 2013).
Several values for one entry are separate records, joined by “and”; a condition that tells them apart may be missing. Equal values may be shown once.

Key:
[1] = biological target: glycine strychnine-insensitive site of the NMDA receptor complex (Homo sapiens, UniProt Q05586); assay: affinity at the glycine strychnine-insensitive site of the NMDA receptor complex; format: binding
[2] = biological target: T1, glycineb/D-serine site (Rattus norvegicus, UniProt P35439); assay: threshold extension in rats, reversal by D-serine; format: in vivo; settings: a glycine agonist, dose dependent fashion
T1 construct: from tissue; host or cells: living rat (in vivo)

[3] = test system: ICR derived male or female mice; assay: Analgesia, Acetic Acid Writhing; format: in vivo; settings: for No. of Writhes, X ± SEM: group of 3 mice; for No. of Writhes (individual animal): one hour before acetic acid, 5 to 10 minute period; for % Inh.: relative to vehicle control
Description: In the first animal study in Example 1, the degree of pain experienced by the mice after injection by acetic acid is seen by the number of writhes. If the mice experience no pain, there is no writhing.
The protocol is based on the acetic acid writhing test in mice, developed by R. Koster, et al. Fed. Proc, 18, 412 […], and referred to a Koster test and Hunskarai, S., et al., J. Neuroscience Meth. 14: 69-76, 1985.
Reduction in the number of writhes by 50 percent or more (≧50%) per group of animals observed during the 5 to 10 minute period after acetic acid administration, relative to a vehicle treated control group, indicated analgesic activity.

[4] = test system: ICR derived male or female mice; assay: formalin induced hind paw licking; format: in vivo; settings: for Licking Time, Ave.: 5 mice
Description: The degree of pain is determined by measuring the decrease in the amount of time the animal spends licking the formalin-injected paw after administration of the drug.
Reduction of the induced hind paw licking time recorded during the following 20 to 30 minutes period by 50 percent or more (50%) indicated analgesic activity.

[5] = test system: male ICR mice; assay: radiant heat induced tail flick response; format: in vivo
Description: Groups of 4 male ICR mice weighing 22±2 gms were employed. A dose (30 mg/kg) of test compound dissolved in a vehicle of saline was administered intraperitoneally. The control group received vehicle alone. At pretreatment (0 minute) a focused beam of radiant heat was applied to the middle dorsal surface of the tail to elicit a tail flick response within 6-7.5 seconds in pre-treated animals. A maximum cut-off time of 15 seconds was set. The time required to elicit a pain response was recorded for each animal at 0 and 30 minutes following administration of test compound. Prolongation by 50 percent or more (≧50%) of the time required to elicit a tail flick indicated analgesic activity.

[6] = biological target: T2, serotonin 5-HT1A receptor (Rattus norvegicus, UniProt P19327); assay: 5-MeODMT-induced head twitch; format: in vivo, rats
T2 construct: from tissue; host or cells: living Long Evans derived rat (in vivo)
T2 sequence (P19327 1-422): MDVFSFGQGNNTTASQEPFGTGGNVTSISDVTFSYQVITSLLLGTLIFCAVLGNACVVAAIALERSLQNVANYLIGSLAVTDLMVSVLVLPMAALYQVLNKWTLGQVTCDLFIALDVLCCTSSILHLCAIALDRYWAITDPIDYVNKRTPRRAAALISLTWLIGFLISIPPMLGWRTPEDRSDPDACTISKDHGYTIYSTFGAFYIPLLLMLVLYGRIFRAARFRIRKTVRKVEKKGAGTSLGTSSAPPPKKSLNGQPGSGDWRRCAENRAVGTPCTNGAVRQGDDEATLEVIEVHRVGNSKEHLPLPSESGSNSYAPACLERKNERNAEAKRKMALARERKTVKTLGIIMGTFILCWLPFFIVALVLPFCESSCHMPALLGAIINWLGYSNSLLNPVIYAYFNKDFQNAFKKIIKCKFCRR
Description: Test substance was administered PO (30 mg/kg) to a group of 3 Long Evans derived male or female rats weighing 150±20 gms one hour before injection of 5-MeODMT (5-methoxy-N,N-dimethyltryptamine, 3 mg/kg IP).

[7] = biological target: NMDA receptor (Mus musculus, UniProt P35438); assay: NMDA receptor agonism/antagonism after ICVT administration
Description: Test substance was administered ICVT (intracerebroventricular, 30 μg in 5 μl/mouse). The appearance of convulsions/mortality in 2 or more (≧2) of 3 ICR derived male or female mice weighing 22±2 gms within the 5 minutes thereafter would indicate NMDA receptor agonism. At a dose where no significant agonist activity was seen within 5 minutes, ability to inhibit NMDA (60 mg/kg IV)—induced Tonic convulsions/mortality in 2 or more (≧2) of 3 ICR derived male or female mice weighing 22±gms within the following 5 minutes indicated NMDA receptor antagonist activity.

Structure (SMILES): COC[C@@H](NC(C)=O)C(=O)NCc1ccccc1 [Compound I, (R)-2-Acetamido-N-benzyl-3-methoxypropionamide]
- IC50 [1]: 5.3 µM
- effects on threshold extension in rats, reversal by D-serine [2]: can be reversed by D-serine
- No. of Writhes, X ± SEM ([3]; 30 mg/kg PO): X ± SEM 15 ± 1.7
- No. of Writhes (individual animal) ([3]; 30 mg/kg PO): 18 and 12 and 15
- % Inh. ([3]; 30 mg/kg PO): 4%
- No. of Writhes, X ± SEM ([3]; 100 mg/kg PO): X ± SEM 0 ± 0
- No. of Writhes (individual animal) ([3]; 100 mg/kg PO): 0
- % Inh. ([3]; 100 mg/kg PO): 100%
- animals showing slight convulsions ([3]; 100 mg/kg, 15 minutes after oral administration, mice): Compound I, at a dose of 100 mg/kg, 3 out of 3 animals showed slight convulsions 15 minutes after oral administration.
- % Inh. ([4]; 30 mg/kg PO): 22%
- Licking Time, Ave. ([4]; 30 mg/kg PO): 100 s
- % Inh. ([4]; 100 mg/kg PO): 100%
- Licking Time, Ave. ([4]; 100 mg/kg PO): 0 s
- Licking Time, Indiv. ([4]; 100 mg/kg PO, 20 to 30 minutes after formalin): 0 s
- animals showing slight convulsions ([4]; 100 mg/kg, at 15 minutes after oral administration, mice): Compound I, at a dose of 100 mg/kg, 5 out of 5 animals showed slight convulsions at 15 minutes after oral administration.
- radiant heat induced tail flick response (in words) ([5]; 30 mg/Kg): unaffected
- % Inh. ([5]; 30 mg/kg IP): 0%
- Response Time 30 Min. (individual animal) ([5]; 30 mg/kg IP, 30 minutes after administration, cut-off 15 seconds): 5.8 and 5.0 and 6.0 and 6.2
- Response Time 30 Min., X ([5]; 30 mg/kg IP, mean of 4 mice): 5.8
- Response Time 0 Min., X ([5]; 30 mg/kg IP, mean of 4 mice, pretreatment): 6.7
- Response Time 0 Min. (individual animal) ([5]; 30 mg/kg IP, pretreatment (0 minute)): 6.4 (2×) and 7.3 and 6.5
- potentiation of 5-MeODMT-induced heat twitch ([6]; 30 mg/Kg PO): No potentiation
- Head Twitch, Ave. ([6]; 30 mg/kg PO, 3 rats): 1
- animals showing tremors without convulsions ([7]; 30 μg/mouse, after intracerebroventricular administration): 2 out of 3
- Agonism (mice with convulsions/mortality within 5 minutes) ([7]; ICVT 30 μg/mouse, N 3): 0
- Antagonism (mice protected from NMDA 60 mg/kg IV induced tonic convulsions/mortality) ([7]; ICVT 30 μg/mouse, N 3): 1
